Experiment [1] relates to male SD rats. The experiment is described as follows: elevated plus-maze test in rats (antianxiety effect). Conditions: subcutaneous; for Time spent on open arms: 30 minutes after administration, 3 minute test, Saline,s.c. 19.1 ± 6.3; for antianxiety effect: overall statement in words. Type of experiment: in vivo. The text has this:
(§1) The isoquinoline derivative represented by formula (I) has a marked effect in the forced swim test, which is the animal model for mood disorder, and in the elevated plus-maze test, which is the animal model for anxiety disorder. Thus, the isoquinoline derivative can be used as a drug for curing or preventing mood disorder or anxiety disorder of mammal and, in particular, human beings. It may also be used in manufacturing of a medicament for curing or preventing mood disorder or anxiety disorder. The evaluation using the above-described animal models can be conducted by a method described in published references [Nature vol. 266, 730 (1977) or Jpn. J. Psychopharmacol vol. 15, 125 (1995)], but the method is not limited to this.
The experiment was conducted on male SD rats. In the elevated plus-maze test, the elevated plus-maze (manufactured by NeuroScience, Inc.) consisting of closed arms and open arms was used. In the experiment, a rat was placed on an open arm 30 minutes after the drug administration (subcutaneous administration), and the number of entries to the open and closed arms and the time spent in the open arms were measured. The test was conducted for 3 minutes. The rat was assumed to have made entries when all four legs have entered the arm. The ratio of the time spent in the open arms and the ratio of the entries to the open arms were calculated according to the following equations: Ratio of the time spent in the open arms (%) = {(time spent in the open arms)/(total time)} × 100 [formula] Ratio of the entries to the open arms (%) = {(number of entries to the open arms)/(total number of entries)} × 100 [formula]
The vertical axis on the left indicates the ratio of the time spent in the open arms (%) and the ratio of the entries to the open arms (%). The vertical axis on the right indicates the total number of entries. The horizontal axis indicates a control group and treatment groups. Open columns indicate the ratio of the time spent in the open arms (%) and hatched columns indicate the ratio of the entries to the open arms (%). Closed circles indicate the total number of entries. All data are indicated by average ±standard error. In a significance test, the difference was assumed to be significant at a significance level of 5% or less by Dunnett's multiple comparison. In the test, the drug is assumed to have an antianxiety effect when there are an increase in time spent on open arms and an increase in ratio of entries to open arms under administration.
The antianxiety effect of Compounds 3, 5, and 6 was assessed as in Example 1. […]

Experiment [2] deals with male ICR mice. Description: forced swim test in mice (antidepressant effect). Type of experiment: in vivo. Conditions: for Immobility time: Saline,s.c. 136.3 ± 11.4; for antidepressant effect: subcutaneous, overall statement in words.
Text: as §1
In the experiment, male ICR mice were used. In the forced swim test, the tank for forced swim used was a transparent cylindrical tank made of plastic (inner diameter: 10 cm, height: 30 cm), and water at 25°C was contained up to 14 cm in height. A mouse was placed in water, and its swimming time during 2 to 6 minutes after placement was measured. The drug was subcutaneously administered 30 minutes before testing. The vertical axis indicates the swimming time (sec) during the measurement time (4 min). The open column indicates a saline-treated group and the hatched columns indicate Compound 1 treatment groups. All data are indicated by average ±standard error. In a significance test, the difference was assumed to be significant at a significance level of 5% or less by Dunnett's multiple comparison. In the test, the drug is assumed to have an antidepressant effect when there is an increase in swimming time under administration.
The antidepressant effect of Compound 3, 5, and 6 was assessed as in Example 3. […]

The mark [3] stands for this setting: 30 mg/kg, subcutaneous 30 minutes before testing.
[4] abbreviates: Fig. 1, compared with the control group (saline-treated group), Dunnett's multiple comparison.

In the case of `CN1CC[C@]2(c3cccc(O)c3)Cc3nc4ccccc4c(N)c3C[C@H]2C1` (relative stereo) [Compound 5, 2-methyl-4aα-(3-hydroxyphenyl)-11-amino-1,2,3,4,4a,5,12,12aβ-octahydro-quinolino[2,3-g]isoquinoline], the “Time spent on open arms” value in experiment [1] (10 mg/kg) came out at 25.4 ± 10.2 s. The antianxiety effect entry in experiment [1] was “significant antianxiety effects”. For the same compound, the “Immobility time” value in experiment [2] (10 mg/kg, subcutaneous 30 minutes before testing) came to 94.3 ± 13 s. In experiment [2], the antidepressant effect entry was “significant antidepressant effect”.

As for `Oc1cccc([C@]23CCN(CCc4ccccc4)C[C@@H]2Cc2cc4ccccc4nc2C3)c1` (relative stereo) [Compound 6, 2-phenethyl-4aα-(3-hydroxyphenyl)-1,2,3,4,4a,5,12,12aβ-octahydro-quinolino [2,3-g]isoquinoline], the “Time spent on open arms” value in experiment [1] (30 mg/kg) was 37.9 ± 4.4 s. In addition, in experiment [1], the antianxiety effect result is given as “significant antianxiety effects”. The “Immobility time” value in experiment [2] (setting [3]) was 58.7 ± 9.1 s. Further, the antidepressant effect entry in experiment [2] was “significant antidepressant effect”.

For the compound `CN1CC[C@]2(c3cccc(O)c3)Cc3nc4ccccc4cc3C[C@@H]2C1` [Compound 1, (4aS,12aS)-2-methyl-4a-(3-hydroxyphenyl)-1,2,3,4,4a,5,12,12a-octahydroquinolino[2,3-g]isoquinoline], in experiment [1] (setting [4]), the “ratio of the entries to open arms” value was “dose-dependent significant increase” and the “time spent in open arms” value is “dose-dependent significant increase”. Moreover, in experiment [1], the antianxiety effect entry is recorded as “confirmed to have an antianxiety effect”. In addition, in experiment [2] (subcutaneous 30 minutes before testing, 2 to 6 minutes after placement, Fig. 2, compared with the control group (saline-treated group)), the swimming time entry is given as “dose-dependent significant increase”. Further, the antidepressant effect result in experiment [2] was “confirmed to have an antidepressant effect”.

Consider `Cc1c2c(nc3ccccc13)C[C@@]1(c3cccc(O)c3)CCN(C)C[C@@H]1C2` (relative stereo) [Compound 3, 2-methyl-4aα-(3-hydroxyphenyl)-11-methyl-1,2,3,4,4a,5,12,12aβ-octahydro-quinolino[2,3-g]isoquinoline], for which the “Time spent on open arms” value in experiment [1] (30 mg/kg) was found to be 36.6 ± 13.2 s. Besides, the antianxiety effect result in experiment [1] is “significant antianxiety effects”. In experiment [2] (setting [3]), the “Immobility time” value amounted to 75.4 ± 11.6 s. The antidepressant effect result in experiment [2] is reported as “significant antidepressant effect”.

Source of the values: patent publication EP1300145A1, “THERAPEUTIC OR […] FOR MOOD DISORDERS OR ANXIETY DISORDERS” (TORAY INDUSTRIES, INC., priority 2000, dated 2002).
